Measurements: patent publication US20060257875A1, “Affinity screening using "one-bead-one-compound" libraries” (Carlsberg A/S, priority 2003, published 2006)

Key:
[1] = system: Serum induced (hypertrophied) Myocytes proteins; test: Solid phase screening of small molecule biaryl Library 7 with labeled myocyte proteins; type: binding, neonatal Wistar rats
[2] = system: normal porcine macrophage proteins; test: Solid phase screening of Library 4 with labeled porcine viral and macrophage proteins; type: binding; conditions: Normal Macrophages
Description: Alternatively, the fluorescent ligand library beads containing bound protein obtained as described in Examples 47, 48, 49 and 51 were sorted using a COPAS (250) NF Bead Sorter (Union Biometrica, Somerville, Mass.) equipped with a dual detector. Both the cyanine dyes used in the labeling procedure, namely Cy 2 (emission wavelength—510 nm) and Cy 3 (emission wavelength—570 nm) were simultaneously excited at […] The bead selection window was then set-up such that all beads containing significant green fluorescence and no red flourescence were isolated. The unselected beads were then resorted to obtain beads containing red fluorescence (proteins from basal cells). […]
(§1) A typical analysis employed 100-300 laser shots. […] The possible identity of the ligand was determined (Narrowed down) by comparing the recorded mass of the ligand with the masses of all possible compounds formed in the library. […]
(§2) Isolated proteins that bound to specific ligands were identified using peptide mass fingerprinting. Mass spectra were recorded on a Bruker Reflex m MALDI time-of-flight mass spectrometer (Bruker-Daltonics, Bremen, Germany) operated in the positive reflectron mode using delayed extraction. […]

basal myocyte protein = test: Solid phase screening of Library 5 with labeled myocyte protein; type: binding, neonatal Wistar rats; conditions: Normal Myocytes
Experimental: Myocytes were prepared from 1 to 5 day old neonatal Wistar rats (University of Copenhagen) according to literature procedure described in Busk et al., 2002, Cardiovasc. Res., 56: 64-75 and plated into eight P10 culture plates at 6 million cells/plate.
Protein was extracted from myocytes prepared as described above for Example 9, using a new procedure modified from existing protocols, primarily: Arrott, et al., 1998, Anal Biochem. 258: 1-18. The media was removed from plates and adhered cells were treated for 10 minutes with ice cold phosphate buffer (0.25 mL, 10 mM, pH 7.5, augmented with 0.15 M NaCl 60 mM Benzamidine HCl, 5 mM EDTA, 10 μg/n E-64, 10 μg/mL Leu-peptin, 10 μg/mL Pepstatin A, and 1 mM PMSF). The cells were scraped off the plates and then lysed (on ice) in a sonicator (2×) using 10 seconds off/10 seconds on cycles.
The resulting suspension was augmented with CHAPS, DTT, and urea to a final concentration of CHAPS (1% w/v), DTT (5 mM), and urea (8 M). After 10-15 minutes on ice, the solution was centrifuged for 10 minutes at 15,000 rpm at 4° C. The supernatant was removed and protein content quantified using the NanoOrange Protein test (Molecular Probes, Eugene, Oreg.): Total protein recovered: 70.5 μg for PE-treated cells and 60 μg for basal cells.
Fluorescent dye Oregon Green 514 (OR) (Molecular Probes) was used to label the healthy/basal cells while Rhodamine Red (RR) (Molecular Probes) was used to label the PE-treated cells. The labeling procedures were carried out according to the manufacturer's protocol. […]
as §1, §2

[3] = molecular target: isoleucine tRNA synthetase (Escherichia coli, UniProt P00956); conditions: Merck Manual; cited from earlier work
Myocytes = test: Proliferation of myocytes with phenylephrine (in vitro model of hypertrophy); type: cell-based, neonatal Wistar rats; conditions: 10 μM phenylephrine (PE); cells grown for two more days
Phosphomannose isomerase = molecular target: T1, Phosphomannose isomerase (Candida albicans, UniProt P34948); conditions: in Candida; Wells et al, 1996; cited from earlier work
T1 sequence (P34948 1-441): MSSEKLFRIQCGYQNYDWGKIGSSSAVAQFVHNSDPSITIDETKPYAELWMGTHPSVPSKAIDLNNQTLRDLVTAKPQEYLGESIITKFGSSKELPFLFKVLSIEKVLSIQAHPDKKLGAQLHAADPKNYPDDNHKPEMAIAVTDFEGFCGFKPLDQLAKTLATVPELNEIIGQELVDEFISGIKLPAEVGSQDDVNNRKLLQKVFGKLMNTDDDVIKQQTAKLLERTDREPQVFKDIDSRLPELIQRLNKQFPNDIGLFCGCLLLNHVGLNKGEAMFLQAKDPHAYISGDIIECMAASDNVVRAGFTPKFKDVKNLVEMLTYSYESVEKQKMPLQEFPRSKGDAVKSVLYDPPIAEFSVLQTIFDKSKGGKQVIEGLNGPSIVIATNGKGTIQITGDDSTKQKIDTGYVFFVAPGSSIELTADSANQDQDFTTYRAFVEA

Sequence of isoleucine tRNA synthetase (P00956 whole entry): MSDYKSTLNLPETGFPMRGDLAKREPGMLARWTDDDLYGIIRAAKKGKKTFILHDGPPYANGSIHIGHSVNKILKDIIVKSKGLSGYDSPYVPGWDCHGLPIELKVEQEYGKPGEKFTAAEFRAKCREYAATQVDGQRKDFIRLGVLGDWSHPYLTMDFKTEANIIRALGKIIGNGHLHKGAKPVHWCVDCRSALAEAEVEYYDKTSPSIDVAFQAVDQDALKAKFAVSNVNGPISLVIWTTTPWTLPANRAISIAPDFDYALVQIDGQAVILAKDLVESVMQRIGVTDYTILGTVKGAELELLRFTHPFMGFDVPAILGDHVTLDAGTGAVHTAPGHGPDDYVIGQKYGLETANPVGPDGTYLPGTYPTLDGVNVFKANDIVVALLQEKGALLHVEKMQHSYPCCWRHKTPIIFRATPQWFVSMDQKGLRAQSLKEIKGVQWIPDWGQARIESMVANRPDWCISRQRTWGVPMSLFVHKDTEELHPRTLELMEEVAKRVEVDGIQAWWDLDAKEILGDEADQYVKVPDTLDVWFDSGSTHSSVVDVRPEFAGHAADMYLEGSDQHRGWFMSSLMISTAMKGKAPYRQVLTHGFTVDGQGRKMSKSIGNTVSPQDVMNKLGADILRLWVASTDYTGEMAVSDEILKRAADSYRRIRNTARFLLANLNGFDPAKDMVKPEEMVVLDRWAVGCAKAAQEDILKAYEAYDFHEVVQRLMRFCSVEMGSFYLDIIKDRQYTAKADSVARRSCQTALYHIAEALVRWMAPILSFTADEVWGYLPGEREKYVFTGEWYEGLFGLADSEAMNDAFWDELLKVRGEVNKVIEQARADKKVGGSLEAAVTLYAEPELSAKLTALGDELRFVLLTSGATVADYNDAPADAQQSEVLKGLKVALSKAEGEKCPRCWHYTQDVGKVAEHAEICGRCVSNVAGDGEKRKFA

## O=C(O)CNC(=O)c1ccc(-c2ccco2)o1
[1]
  Identified Protein(s): Serine-threonine kinase (gi 474842); Hemopexin precur- sor (Beta-1B-glycoprotein) (P02790); 116 kDa U5 small nuclear ribonucleoprotein component (O08810).

## COc1ccc(Br)c(OC)c1C(=O)NC1(C(=O)O)CCCCC1
[1]
  Identified Protein(s): Translin-associated protein X (Q99598); Hypothetical Protein ORF-1137 (P11260); Integrin alpha-1 (Laminin and collagen receptor VLA-1,CD49a) (P56199_.

## C[C@H](NC(=O)[C@@H]1CCCCNC(=O)N1)C(=O)O [HY1]
[2]
  Identified Protein(s): Protein kinase C binding protein 1 also contains a zinc finger domain with protein 8) (Q9U1U4); Guanine nucle- otide-binding protein G(S), alpha subunit (Adenylate cy- clase-stimulating G alpha protein) (P048949).

## O=C1NCCC[C@@H](C(=O)N[C@@H](CCc2ccccc2)C(=O)O)N1 [HY2]
[2]
  Identified Protein(s): Protein kinase byr2 (Protein kinase ste8) (MAP kinase) (P28829); Similar to protein kinase 2 (Testicular) (Q885R6); Thiamine-triphosphatase (Q8CgV7).

## O=C(O)c1ccc(CN2C[C@@H](CN(C(=O)c3ccccc3)C3(C(=O)O)CCCC3)N3C(=O)c4ccccc4[C@H]23)cc1 [HY3]
Basal myocyte protein
  Identified Protein(s): NADH-ubiquinone oxidoreductase B14 subunit (Q9CQZ5).

## O=C1c2ccccc2[C@@H]2N(Cc3ccc(O)cc3)C[C@@H](CN(C(=O)CCc3ccccc3)C3(C(=O)O)CCCC3)N12 [HY4]
Basal myocyte protein
  Identified Protein(s): NADH-ubiquinone oxidoreductase B14 subunit (Q9CQZ5).

## CC(CCc1ccccc1)N1C[C@@H](CN2Cc3ccccc3CC2C(=O)O)N2C(=O)c3ccccc3[C@H]12 (stereo partly shown) [HY5]
Basal myocyte protein
  Identified Protein(s): Myosin Va (Myosin 5A, dilute myosin heavy chain, non muscle (Q9Y411).

## C/C(=C\C(=O)OCCCCCCCCC(=O)O)C[C@@H]1OC[C@H](C[C@@H]2O[C@H]2[C@@H](C)[C@H](C)O)[C@@H](O)[C@H]1O [Mupirocin]
[3]
  inhibition of isoleucine tRNA synthetase: inhibits the enzyme isoleucine tRNA synthetase

## CNC[C@H](O)c1cccc(O)c1 [PE, phenylephrine]
Myocytes
  cell size at time of harvest: significantly enlarged

## Nc1ccc(S(=O)(=O)Nc2ncccn2)cc1 [sulfadiazene]
Phosphomannose isomerase
  inhibition of phosphomannose isomerase: inhibited
